# Laboratory results taken from patent publication US12371454B2, “Cyclic peptide compound having Kras inhibitory action” (priority 2019, dated 2025).
# Starred links: 1 amine or outer side, 2 acyl side, 3 side chain; linkers in the order of their positions; H or OH if unused. Positions of bridges follow the written chain, without caps; N, C: chain ends. Non-standard residues stand in square brackets, D forms with d. Residues, ends and D or L forms follow the SMILES beside them. *: point of attachment. hPhe(3-Cl-4-CF3) = N[C@@H](CCc1ccc(C(F)(F)F)c(Cl)c1)C(=O)O; NMePhe(3-CN) = CN[C@@H](Cc1cccc(C#N)c1)C(=O)O; NMePhe(4-Cl) = CN[C@@H](Cc1ccc(Cl)cc1)C(=O)O; NMePhe(2-Cl) = CN[C@@H](Cc1ccccc1Cl)C(=O)O; NMedβ3hAla = C[C@H](CC(=O)[*:2])N(C)[*:1]; Phe(3-I) = N[C@@H](Cc1cccc(I)c1)C(=O)O; NMehPhe = CN[C@@H](CCc1ccccc1)C(=O)O; NMeCha = CN[C@@H](CC1CCCCC1)C(=O)O; NMeChg = CN[C@H](C(=O)O)C1CCCCC1; NMeF = CN[C@@H](Cc1ccccc1)C(=O)O; NMeI = CC[C@H](C)[C@H](NC)C(=O)O; Piperidide(4-Me) = CC1CCN(*)CC1; NMeD = CN[C@@H](CC(=O)O)C(=O)O; NMeL = CN[C@@H](CC(C)C)C(=O)O; NMeV = CN[C@H](C(=O)O)C(C)C; NMeS = CN[C@@H](CO)C(=O)O; NMeA = CN[C@@H](C)C(=O)O; Nle = CCCC[C@H](N)C(=O)O; Piperidide = C1CCN(*)CC1; Ac5c = NC1(C(=O)O)CCCC1; Aze = O=C(O)[C@@H]1CCN1; Cyclobutyl = C1CC(*)C1; Sar = CNCC(=O)O
# Columns and labels:
# [1] = tested on: Human pancreatic cancer cell line AsPC-1; experiment: Measurement of AsPC-1 cell growth inhibition (AsPC-1 CGI); format: cell-based; details: 96 h
# In short: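 AsPC-1 cells in 15% FBS RPMI-1640 were exposed to test compound for 96 hours at 37° C, with CellTiter-Glo as endpoint.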
# [2] = target: T1, Kras and SOS1 (biotin-tagged human Kras loaded with GDP, His-tagged human SOS1) (Homo sapiens, UniProt P01116, G12D); experiment: Protein-protein interaction inhibition between Kras and SOS1 (KrasGl2D-SOS PPI) using AlphaScreen; format: binding; details: AlphaScreen; biotin-tagged human Kras loaded with GDP, His-tagged human SOS1; read-out: KRAS G12D-SOS PPI IC50
# T1 construct: made in house; host or cells: E. coli (stated for Kras only)
# T1 sequence (P01116 1-188 isoform P01116-2 G12D): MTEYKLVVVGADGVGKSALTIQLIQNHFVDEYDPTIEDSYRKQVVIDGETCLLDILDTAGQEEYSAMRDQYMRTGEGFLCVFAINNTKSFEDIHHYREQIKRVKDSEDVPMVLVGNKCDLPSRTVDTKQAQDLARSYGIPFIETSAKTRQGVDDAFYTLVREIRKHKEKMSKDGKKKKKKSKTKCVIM
# In short: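 Kras was produced in E. coli, purified, then loaded with GDP. It was paired via streptavidin acceptor beads with His-SOS1 held on nickel donor beads, and proximity signal at 520-620 nm was read after 680 nm illumination.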
Structure (SMILES),IC50 [1],IC50 [2]
CCCC[C@@H]1NC(=O)[C@H](Cc2cccc(I)c2)NC(=O)CN(C)C(=O)[C@H](Cc2ccc(Cl)cc2)N(C)C(=O)CN(C)C(=O)CN(C)C(=O)[C@H]([C@@H](C)CC)NC(=O)[C@H](CC(C)C)N(C)C(=O)C[C@@H](C(=O)N2CCCCC2)N(C)C(=O)[C@H](CC(C)C)NC(=O)[C@H](Cc2ccccc2Cl)N(C)C1=O [Compound 168] ([NMeL]I[Sar][Sar][NMePhe(4-Cl)][Sar][Phe(3-I)][Nle][NMePhe(2-Cl)]L[NMeD]-Piperidide; lactam N-11),100 to 500 nM,29 nM
CC[C@H](C)[C@@H]1NC(=O)[C@H]([C@@H](C)CC)N(C)C(=O)C[C@@H](C(=O)N2CCCCC2)N(C)C(=O)[C@H](C2CCCCC2)N(C)C(=O)C2(CCCC2)NC(=O)[C@@H]2CCCN2C(=O)[C@H](CCc2ccc(C(F)(F)F)c(Cl)c2)NC(=O)CN(C)C(=O)[C@H](CC2CCCCC2)N(C)C(=O)CN(C)C(=O)CN(C)C1=O [Compound 1671] ([NMeI]I[Sar][Sar][NMeCha][Sar][hPhe(3-Cl-4-CF3)]P[Ac5c][NMeChg][NMeD]-Piperidide; lactam N-11),50 to 100 nM,1.1 nM
CC[C@H](C)[C@@H]1NC(=O)[C@H](CC(C)C)N(C)C(=O)C[C@@H](C(=O)N2CCCCC2)N(C)C(=O)[C@H](C(C)C)N(C)C(=O)C2(CCCC2)NC(=O)[C@@H]2CCCN2C(=O)[C@H](CCc2ccc(C(F)(F)F)c(Cl)c2)NC(=O)CN(C)C(=O)[C@H](COC2CCC2)N(C)C(=O)[C@@H]2CCN2C(=O)[C@H](C)N(C)C1=O [Compound 880] ([NMeL]I[NMeA][Aze][NMeS](Cyclobutyl)[Sar][hPhe(3-Cl-4-CF3)]P[Ac5c][NMeV][NMeD]-Piperidide; lactam N-11),100 to 500 nM,2.9 nM
CC[C@H](C)[C@@H]1NC(=O)[C@H](CC(C)C)N(C)C(=O)C[C@@H](C(=O)N2CCC(C)CC2)NC(=O)[C@H]([C@@H](C)CC)N(C)C(=O)C2(CCCC2)NC(=O)[C@@H]2CCCN2C(=O)[C@H](CCc2ccc(C(F)(F)F)c(Cl)c2)NC(=O)CN(C)C(=O)[C@H](CC2CCCCC2)N(C)C(=O)CN(C)C(=O)CN(C)C1=O [Compound 1172] ([NMeL]I[Sar][Sar][NMeCha][Sar][hPhe(3-Cl-4-CF3)]P[Ac5c][NMeI]D-{Piperidide(4-Me)}; lactam N-11),100 to 500 nM,6.8 nM
CC[C@H](C)[C@@H]1NC(=O)[C@H](CC(C)C)N(C)C(=O)C[C@@H](C(=O)N2CCCCC2)N(C)C(=O)[C@H](C(C)C)N(C)C(=O)C2(CCCC2)NC(=O)[C@@H]2CCCN2C(=O)[C@H](CCc2ccc(C(F)(F)F)c(Cl)c2)NC(=O)CN(C)C(=O)[C@H](Cc2ccccc2)N(C)C(=O)CN(C)C(=O)CN(C)C1=O [Compound 1598] ([NMeL]I[Sar][Sar][NMeF][Sar][hPhe(3-Cl-4-CF3)]P[Ac5c][NMeV][NMeD]-Piperidide; lactam N-11),100 to 500 nM,9.2 nM
CC[C@H](C)[C@@H]1NC(=O)[C@H](CC(C)C)N(C)C(=O)C[C@@H](C)N(C)C(=O)[C@H](C(C)C)N(C)C(=O)C2(CCCC2)NC(=O)[C@@H]2CCCN2C(=O)[C@H](CCc2ccc(C(F)(F)F)c(Cl)c2)NC(=O)CN(C)C(=O)[C@H](CCc2ccccc2)N(C)C(=O)CN(C)C(=O)CN(C)C1=O [Compound 1634] (cyclo([Ac5c][NMeV][NMedβ3hAla][NMeL]I[Sar][Sar][NMehPhe][Sar][hPhe(3-Cl-4-CF3)]P)),50 to 100 nM,13 nM
CC[C@H](C)[C@@H]1NC(=O)[C@H](CC(C)C)N(C)C(=O)C[C@@H](C)N(C)C(=O)[C@H](C(C)C)N(C)C(=O)C2(CCCC2)NC(=O)[C@@H]2CCCN2C(=O)[C@H](CCc2ccc(C(F)(F)F)c(Cl)c2)NC(=O)CN(C)C(=O)[C@H](Cc2cccc(C#N)c2)N(C)C(=O)CN(C)C(=O)CN(C)C1=O [Compound 238] (cyclo([Ac5c][NMeV][NMedβ3hAla][NMeL]I[Sar][Sar][NMePhe(3-CN)][Sar][hPhe(3-Cl-4-CF3)]P)),100 to 500 nM,12 nM
CC[C@H](C)[C@@H]1NC(=O)[C@H](CC(C)C)N(C)C(=O)C[C@@H](C(=O)N(C)C)N(C)C(=O)[C@H](C2CCCCC2)N(C)C(=O)C2(CCCC2)NC(=O)[C@@H]2CCCN2C(=O)[C@H](CCc2ccc(C(F)(F)F)c(Cl)c2)NC(=O)CN(C)C(=O)[C@H](CC2CCCCC2)N(C)C(=O)CN(C)C(=O)CN(C)C1=O [Compound 1729] ([NMeL]I[Sar][Sar][NMeCha][Sar][hPhe(3-Cl-4-CF3)]P[Ac5c][NMeChg][NMeD]-NMe2; lactam N-11),20 to 50 nM,0.44 nM
